Experimental data taken from publication PMC6270727, “Anticholinesterase Inhibitory Activity of Quaternary Alkaloids from Tinospora crispa” (Molecules, 2014).
Where two headings read alike, the source gives them in different places.

Molecular target: T1, acetylcholinesterase (AChE) from electric eels (type V-S) (Electrophorus electricus, UniProt O42275)
T1 construct: purchased Sigma-Aldrich (St. Louis, MO, USA) type V-S (catalogue number not given)
Assay: Acetylcholinesterase (AChE) inhibitory assay, modified Ellman's colorimetric method, 96-well microplate
Format: biochemical
Conditions: for AChE inhibitory activity in words: microplate assay

[1] = mean ± standard deviation of two independent experiments, Tris-HCl pH 8, absorbance at 405 nm, read-out: Acetylcholinesterase inhibitory activity IC50

T1 sequence (O42275 24-633): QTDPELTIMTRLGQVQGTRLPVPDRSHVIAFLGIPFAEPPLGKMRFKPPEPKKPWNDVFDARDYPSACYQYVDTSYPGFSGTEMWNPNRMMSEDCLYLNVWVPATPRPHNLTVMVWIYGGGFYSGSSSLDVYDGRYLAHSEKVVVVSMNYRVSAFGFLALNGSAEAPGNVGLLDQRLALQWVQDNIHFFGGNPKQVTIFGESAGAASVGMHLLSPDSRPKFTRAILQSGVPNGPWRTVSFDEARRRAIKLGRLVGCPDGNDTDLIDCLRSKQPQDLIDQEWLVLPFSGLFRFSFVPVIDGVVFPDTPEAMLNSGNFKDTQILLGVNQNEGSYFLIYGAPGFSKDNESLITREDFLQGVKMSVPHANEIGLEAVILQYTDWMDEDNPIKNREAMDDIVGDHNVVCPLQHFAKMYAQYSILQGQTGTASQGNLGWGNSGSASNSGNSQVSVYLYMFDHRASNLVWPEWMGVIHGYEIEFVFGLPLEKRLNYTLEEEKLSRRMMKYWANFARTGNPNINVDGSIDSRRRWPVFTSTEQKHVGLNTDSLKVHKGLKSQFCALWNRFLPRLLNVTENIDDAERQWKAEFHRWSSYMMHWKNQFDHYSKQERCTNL

Compound	IC50 [µM]	AChE inhibitory activity in words	IC50 [1] [µM]
COc1cc2c(cc1O)-c1cc3ccc(OC)c(OC)c3c[n+]1CC2 [Compound 3, columbamine]	48.1 ± 1.3	most active compound	–
COc1ccc2c(c1O)-c1c(O)c(OC)cc3c1[C@H](C2)[N+](C)(C)CC3 [Compound 4, magnoflorine]	–	very weak or no inhibitory activity	–
O=CN1CCc2cc3c(c4c2C1Cc1ccccc1-4)OCO3 (stereo not shown) [Compound 5, N-formylannonaine]	–	–	415.3 ± 2.7
COc1cc2c3c(c1OC)-c1ccccc1CC3N(C=O)CC2 (stereo not shown) [Compound 6, N-formylnornuciferine]	–	very weak or no inhibitory activity	564.6 ± 2.1
COc1cc(/C=C/C(=O)NCCc2ccc(O)cc2)ccc1O [Compound 7, N-trans-feruloyltyramine]	–	very weak or no inhibitory activity	–
